{"source": "patent US5110976A", "about": "“Insecticidal composition comprising more than one active ingredient” (priority 1985, dated 1992)", "key": {"T. confusum [1]": {"tested_on": "T. confusum", "assay": "Contact method, synergism between stereoisomers (Table 2)", "type": "in vivo", "details": "Tribolium confusum, 24 h", "procedure": "The stereoisomers are dissolved in a 1:2 mixture of mineral oil and acetone and filter paper discs (Whatman No. 1., diameter 9 cm) are impregnated with the corresponding dosage of the solution of the active ingredient. The acetone is allowed to evaporate and the insects are examined on filter paper discs placed into Petri-dishes. Three parallels are used for each dose and 15 animals are placed in each Petri-dish. Mortality rate is determined after 24 hours. The corrected mortality % data are calculated by means of the Abbot formula.\nThe test is carried out on T. confusum and the following results are obtained by the contact method for various active ingredient doses.\nThe test is carried out according to the method described in Example 20."}, "T. confusum [2]": {"tested_on": "T. confusum", "assay": "Topical LD50 (Table 3)", "type": "in vivo, 1-2 weeks' old imagos", "details": "topical, abdominal side", "procedure": "(§1) In Table 3 the LD50 values of the Ig and Ii isomers and those of the Ib isomer-pair are disclosed. The data are topically measured.\n(§2) The active ingredients are dissolved in 2-ethoxyethanol (cellosolve) and 0.3 μl droplets of the solutions are applied onto the dorsal cuticulum of 3-5 days' old female house flies. 10 animals are used and 2 parallels are carried out for each dose. The tests are carried out for 5 dose levels between activity limits of 0% and 100%. After treatment the flies are placed into glass vials. Mortality is determined after 24 hours. Data are transformed to log10 dosage and probit mortality. LD50 and confidence interval values are calculated by linear regression analysis of the log-probit data. The expected values required for the calculation of synergism are obtained by means of harmonic average. The synergistic factor is the quotient of the expected and measured values.\nThe active ingredients are dissolved in 2-ethoxyethanol and 0.3 μl droplets of the solutions are applied onto the abdominal side of 1-2 weeks' old imagos. Treatment is carried out with 2 parallels and 20 animals for each dose by using 5 dose levels in the range between activity limits of 0% and 100%. Evaluation and determination of LD50 values and synergistic factors are carried out as described in Example 21."}, "Musca domestica [3]": {"tested_on": "Musca domestica", "assay": "Topical LD50 (Table 3)", "type": "in vivo, house fly (Musca domestica), 3-5 days' old females", "details": "topical, dorsal cuticulum; 24 hours", "procedure": "as §1, §2"}, "Musca domestica [4]": {"tested_on": "Musca domestica", "assay": "Filter paper disc contact test (Table 11)", "type": "in vivo, house fly (Musca domestica)", "details": "Musca domestica, 24 h", "procedure": "In Table 1 the activity of various stereoisomers of cypermethrin on the house fly (Musca domestica) is shown.\n(§3) The active ingredient is dissolved in a 1:2 mixture of oil and acetone; filter paper discs (Whatman No. 1, diameter 9 cm) are impregnated with the solutions of the corresponding stereoisomers and enantiomer-pairs, respectively. The acetone is allowed to evaporate, whereupon the insects are exposed to filter papers discs placed in Petri-dishes. Three parallels are used on each dose and 15 insects are placed into each Petri-dish. The percental mortality is determined after 24 hours. The corrected percent mortality is calculated by means of the Abbot Formula."}, "Tribolium confusum": {"tested_on": "Tribolium confusum", "assay": "Contact test on Tribolium confusum (Table 12)", "type": "in vivo", "details": "Tribolium confusum, 24 h", "procedure": "as §3\nIt appears from Table 12 that the increased activity shown in Example 41 is due to the synergistic effect of the trans-isomers to Tribolium confusum."}, "T. confusum [5]": {"tested_on": "T. confusum", "assay": "Activity as function of time, toxic symptoms (Table 16)", "type": "in vivo, flour beetle (T. confusum), imagos", "procedure": "as §3\nActivity of cypermethrin stereoisomer-pairs as function of time on flour beetle (T. Confusum).\nFlour beetle (T. confusum) imagos are exposed in Petri-dishes according to the method described in Example 43. For each dose 3 parallels are used and 15 animals are applied for each parallel test. In each point of time the insects lying on their backs are counted and the percental results are expressed in Table 16."}, "Musca domestica [6]": {"tested_on": "Musca domestica", "details": "bioresmetrine = 100; cited from earlier work"}, "Phaedon cochleariae": {"tested_on": "Phaedon cochleariae", "details": "bioresmetrine = 100; cited from earlier work"}}}
{"smiles": "CC1(C)[C@H](C=C(Cl)Cl)[C@H]1C(=O)O[C@H](C#N)c1cccc(Oc2ccccc2)c1", "note": "[Ig]", "values": [{"measurement": "mortality at 110 µg/disc", "setting": "T. confusum [1]; 0.11 mg/disc", "result": 80, "unit": "%"}, {"measurement": "mortality at 330 µg/disc", "setting": "T. confusum [1]; 0.33 mg/disc", "result": 94, "unit": "%"}, {"measurement": "mortality at 1000 µg/disc", "setting": "T. confusum [1]; 1.00 mg/disc", "result": 100, "unit": "%"}, {"measurement": "mortality at 3000 µg/disc", "setting": "T. confusum [1]; 3.00 mg/disc", "result": 100, "unit": "%"}, {"measurement": "LD50 measured", "setting": "T. confusum [2]", "result": 73.6, "unit": "ng/insect"}, {"measurement": "LD50 measured", "setting": "Musca domestica [3]", "result": 13.4, "unit": "ng/insect"}, {"measurement": "mortality at 40 µg/disc", "setting": "Musca domestica [4]; 0.04 mg/disc", "result": 48, "unit": "%"}, {"measurement": "mortality at 110 µg/disc", "setting": "Musca domestica [4]; 0.11 mg/disc", "result": 68, "unit": "%"}, {"measurement": "mortality at 330 µg/disc", "setting": "Musca domestica [4]; 0.33 mg/disc", "result": 83, "unit": "%"}, {"measurement": "mortality at 1000 µg/disc", "setting": "Musca domestica [4]; 1.00 mg/disc", "result": 100, "unit": "%"}, {"measurement": "mortality at 3000 µg/disc", "setting": "Musca domestica [4]; 3.00 mg/disc", "result": 100, "unit": "%"}, {"measurement": "mortality at 110 µg/disc", "setting": "Tribolium confusum; 0.11 mg/disc", "result": 70, "unit": "%"}, {"measurement": "mortality at 330 µg/disc", "setting": "Tribolium confusum; 0.33 mg/disc", "result": 92, "unit": "%"}, {"measurement": "mortality at 1000 µg/disc", "setting": "Tribolium confusum; 1.00 mg/disc", "result": 100, "unit": "%"}, {"measurement": "mortality at 3000 µg/disc", "setting": "Tribolium confusum; 3.00 mg/disc", "result": 100, "unit": "%"}, {"measurement": "% of insects showing toxic symptoms", "setting": "T. confusum [5]; 30 minutes", "result": 0, "unit": "%"}, {"measurement": "% of insects showing toxic symptoms", "setting": "T. confusum [5]; 30 minutes, 0.33 mg/disc", "result": 0, "unit": "%"}, {"measurement": "% of insects showing toxic symptoms", "setting": "T. confusum [5]; 30 minutes, 1.00 mg/disc", "result": 15, "unit": "%"}, {"measurement": "% of insects showing toxic symptoms", "setting": "T. confusum [5]; 30 minutes, 3.00 mg/disc", "result": 68, "unit": "%"}, {"measurement": "% of insects showing toxic symptoms", "setting": "T. confusum [5]; 60 minutes", "result": 18, "unit": "%"}, {"measurement": "% of insects showing toxic symptoms", "setting": "T. confusum [5]; 60 minutes, 0.33 mg/disc", "result": 34, "unit": "%"}, {"measurement": "% of insects showing toxic symptoms", "setting": "T. confusum [5]; 60 minutes, 1.00 mg/disc", "result": 98, "unit": "%"}, {"measurement": "% of insects showing toxic symptoms", "setting": "T. confusum [5]; 60 minutes, 3.00 mg/disc", "result": 100, "unit": "%"}, {"measurement": "% of insects showing toxic symptoms", "setting": "T. confusum [5]; 120 minutes", "result": 30, "unit": "%"}, {"measurement": "% of insects showing toxic symptoms", "setting": "T. confusum [5]; 120 minutes, 0.33 mg/disc", "result": 70, "unit": "%"}, {"measurement": "% of insects showing toxic symptoms", "setting": "T. confusum [5]; 120 minutes, 1.00 mg/disc", "result": 100, "unit": "%"}, {"measurement": "% of insects showing toxic symptoms", "setting": "T. confusum [5]; 120 minutes, 3.00 mg/disc", "result": 100, "unit": "%"}, {"measurement": "% of insects showing toxic symptoms", "setting": "T. confusum [5]; 180 minutes", "result": 34, "unit": "%"}, {"measurement": "% of insects showing toxic symptoms", "setting": "T. confusum [5]; 180 minutes, 0.33 mg/disc", "result": 84, "unit": "%"}, {"measurement": "% of insects showing toxic symptoms", "setting": "T. confusum [5]; 180 minutes, 1.00 mg/disc", "result": 100, "unit": "%"}, {"measurement": "% of insects showing toxic symptoms", "setting": "T. confusum [5]; 180 minutes, 3.00 mg/disc", "result": 100, "unit": "%"}, {"measurement": "activity related to bioresmetrine (100)", "setting": "Musca domestica [6]", "result": 1400}, {"measurement": "activity related to bioresmetrine (100)", "setting": "Phaedon cochleariae", "result": 2200}]}
